# Source: ChEMBL document CHEMBL1201862, “PubChem BioAssay data set” (2004)
# The source made the active and inactive calls. Cut-off read from the data, not from the text of the source: actives have a measured IC50 and inactives only a lower limit.
# Target: Envelope glycoprotein gp160 (Human immunodeficiency virus 1, UniProt Q6QLK5)
# Assay: cell-free HIV fusion peptide-binding blockers – biochemical, uHTS, fluorescence dequenching, […] (AID 1986)
# Chain of Envelope glycoprotein gp160 (Q6QLK5 whole entry, the tested form may be a part): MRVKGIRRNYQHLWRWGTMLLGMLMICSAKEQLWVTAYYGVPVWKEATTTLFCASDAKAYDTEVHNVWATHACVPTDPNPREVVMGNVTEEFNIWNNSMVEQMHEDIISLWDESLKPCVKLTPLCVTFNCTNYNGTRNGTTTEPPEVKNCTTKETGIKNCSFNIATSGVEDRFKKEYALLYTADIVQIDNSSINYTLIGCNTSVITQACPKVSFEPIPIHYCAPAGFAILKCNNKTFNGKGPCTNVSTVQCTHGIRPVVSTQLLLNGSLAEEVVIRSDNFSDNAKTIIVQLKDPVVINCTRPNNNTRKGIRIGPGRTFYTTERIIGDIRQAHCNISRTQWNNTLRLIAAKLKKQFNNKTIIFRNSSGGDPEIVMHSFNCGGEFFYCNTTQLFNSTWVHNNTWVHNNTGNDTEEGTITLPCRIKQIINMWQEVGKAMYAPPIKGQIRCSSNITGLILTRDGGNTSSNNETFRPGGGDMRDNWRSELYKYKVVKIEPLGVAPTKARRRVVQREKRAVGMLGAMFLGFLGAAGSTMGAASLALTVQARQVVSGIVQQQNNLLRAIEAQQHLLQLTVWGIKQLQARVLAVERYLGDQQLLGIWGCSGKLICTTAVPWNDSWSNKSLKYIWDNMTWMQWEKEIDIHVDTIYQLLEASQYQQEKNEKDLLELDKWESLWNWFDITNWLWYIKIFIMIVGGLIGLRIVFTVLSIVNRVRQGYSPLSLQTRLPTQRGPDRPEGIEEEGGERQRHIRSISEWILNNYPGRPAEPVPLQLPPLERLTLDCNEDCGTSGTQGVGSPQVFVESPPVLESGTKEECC
compound,measurement,value
CCOC(=O)C1=C(C)N=c2s/c(=C\c3ccc(OCC(=O)O)c(OC)c3)c(=O)n2C1c1ccc(OC)cc1 (stereo unspecified),IC50,23.9 µM (active)
